Measurements from patent US20250289804A1, “SUBSTITUTED INDOLE COMPOUNDS AND METHODS OF USE THEREOF” (NOVARTIS PHARMA AG, priority 2021, published 2025).
Like-named read-outs stand apart in the source and are kept apart here.

Assays:
[1] = system: MAC formation in normal human serum; assay: Human serum MAC formation assay (zymosan-coated plates, 50% normal human serum); conditions: 50% normal human serum with EGTA, 37° C. 30 minutes
Experimental: MAC deposition assay using normal human serum was applied to evaluate compound potency under physiologically relevant conditions. Black Maxisorp plates (Thermo Fisher, 437111) were coated with preactivated zymosan (Complement Technology, B400) at 0.5 mg/mL in carbonate buffer (pH 9.5, Sigma, C3041) at room temperature overnight. Compounds were serial diluted 3-fold in 100% DMSO for a 10-point dose-response curve. Normal human serum (Complement Technology, NHS) was diluted to 50% (v/v) with the gelatin buffer (4.2 mM HEPES pH 7.4, 0.15 mM CaCl2, 141 mM NaCl, 4.5 mM MgCl2, 0.1% gelatin) containing 20 mM EGTA or 20 mM EDTA. In conical bottom 96-well plates, 1 μL compound and 99 μL of serum-EGTA were mixed. Serum-EDTA was used as baseline control. The serum-compound mixture was incubated at room temperature for 15 minutes before being transferred to the washed zymosan plate for complement activation at 37° C. for 30 minutes. The reaction was terminated by decanting the reaction mixture and adding blocking buffer (Thermo Fisher, 37539) for 20 minutes. MAC formation on the ELISA plate was detected using 0.2 μg/mL mouse anti-human C9 neoepitope monoclonal antibody (Thermo Fisher, MA5-33373) diluted in phosphate-buffered saline with 0.05% Tween-20 (PBST). A goat anti-mouse IgG-HRP antibody (Thermo Fisher, A16072) was used at 1:2000 in PBST as secondary antibody. After washing, the reaction was developed using QuantaBlu (Thermo Fisher, 15169) for 20 minutes at room temperature. The plates were read at 325 nm excitation and 420 nm emission wavelengths. Percent inhibition values were generated using the baseline (EDTA-serum) and the maximum control (EGTA-serum). An IC50 for each compound was calculated using 4-parameter logistic regression.

[2] = biological target: human C3bBb (Homo sapiens (Human), UniProt P00751); assay: Human C3bBb enzyme assay (C3a generation from C3, ELISA); assay type: biochemical; conditions: read-out: Human C3b:Bb IC50 Avg
Experimental: Compounds disclosed herein were evaluated for their potency to inhibit human C3bBb in a biochemical assay. To generate active C3bBb complex in vitro, purified human C3b (Complement Technology, A114), CFB (Complement Technology, A135) and CFD (Complement Technology, A136) were mixed in a 1:1:1 ratio to a final concentration of 1 μM each in the C3bBb assay buffer (PBS pH 7.4, 100 μM NiCl2, 0.05% (w/v) CHAPS). The reaction mix was incubated at room temperature for 30 minutes on a rotating platform. […] On the day of the enzyme assay, a reaction mixture containing 3 nM C3bBb complex and 1 μM purified human C3 (Complement Technology, A113) was prepared in the C3bBb assay buffer. Compounds were serial diluted 3-fold in 100% DMSO for a 10-point dose-response curve. A 0.5 μL aliquot of diluted compound solution was transferred to a conical bottom 96-well plate, before 49.5 μL of the reaction mix was added to each well to initiate the reaction. The plate was incubated for 1 hour at room temperature. […] The generation of C3a from C3 by the C3bBb complex was measured using the MicroVue C3a Plus EIA ELISA kit (Quidel, A031). The concentration of C3a from each well was calculated using a standard curve. Percent inhibition values were generated using the baseline (C3 only) and the maximum control (DMSO instead of compound), and IC50 of each compound was calculated using 4-parameter logistic regression.

[3] = starred values: assay conducted with 1 nM C3b:Bb enzyme
[4] = 3 nM C3bBb complex, 1 μM human C3, 1 hour room temperature

human C3bBb, sequence (P00751 260-764): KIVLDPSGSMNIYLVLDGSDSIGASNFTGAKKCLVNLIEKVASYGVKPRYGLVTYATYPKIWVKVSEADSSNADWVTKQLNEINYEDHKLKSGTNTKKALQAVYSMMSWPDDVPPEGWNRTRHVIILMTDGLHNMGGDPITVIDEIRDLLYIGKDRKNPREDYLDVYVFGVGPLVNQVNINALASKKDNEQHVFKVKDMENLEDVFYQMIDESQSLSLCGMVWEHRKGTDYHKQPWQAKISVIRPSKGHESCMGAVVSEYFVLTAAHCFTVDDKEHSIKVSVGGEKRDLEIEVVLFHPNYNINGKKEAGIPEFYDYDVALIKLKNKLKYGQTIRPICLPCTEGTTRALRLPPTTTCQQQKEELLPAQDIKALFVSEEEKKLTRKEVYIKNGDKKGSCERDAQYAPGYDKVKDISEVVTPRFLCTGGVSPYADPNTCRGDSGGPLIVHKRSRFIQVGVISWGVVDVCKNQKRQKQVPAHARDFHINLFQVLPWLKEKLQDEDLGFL
human C3bBb, sequence (P01024 23-667 partner): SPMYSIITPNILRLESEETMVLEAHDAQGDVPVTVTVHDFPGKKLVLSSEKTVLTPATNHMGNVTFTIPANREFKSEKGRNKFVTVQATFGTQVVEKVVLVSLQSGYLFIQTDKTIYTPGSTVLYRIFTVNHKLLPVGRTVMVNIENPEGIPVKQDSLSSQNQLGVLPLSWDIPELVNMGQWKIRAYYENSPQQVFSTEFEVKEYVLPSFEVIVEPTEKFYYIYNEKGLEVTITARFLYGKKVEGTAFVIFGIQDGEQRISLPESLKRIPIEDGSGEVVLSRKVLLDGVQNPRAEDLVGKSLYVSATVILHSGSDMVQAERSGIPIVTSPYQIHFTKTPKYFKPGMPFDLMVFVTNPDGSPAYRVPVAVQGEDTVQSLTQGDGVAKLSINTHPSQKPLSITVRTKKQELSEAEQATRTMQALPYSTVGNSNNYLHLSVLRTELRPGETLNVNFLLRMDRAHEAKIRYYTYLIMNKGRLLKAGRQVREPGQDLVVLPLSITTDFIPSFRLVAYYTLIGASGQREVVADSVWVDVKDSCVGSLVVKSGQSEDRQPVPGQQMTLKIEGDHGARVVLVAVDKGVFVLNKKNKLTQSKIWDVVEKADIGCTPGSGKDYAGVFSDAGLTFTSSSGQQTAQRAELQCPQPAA
human C3bBb, sequence (P01024 749-1663 partner): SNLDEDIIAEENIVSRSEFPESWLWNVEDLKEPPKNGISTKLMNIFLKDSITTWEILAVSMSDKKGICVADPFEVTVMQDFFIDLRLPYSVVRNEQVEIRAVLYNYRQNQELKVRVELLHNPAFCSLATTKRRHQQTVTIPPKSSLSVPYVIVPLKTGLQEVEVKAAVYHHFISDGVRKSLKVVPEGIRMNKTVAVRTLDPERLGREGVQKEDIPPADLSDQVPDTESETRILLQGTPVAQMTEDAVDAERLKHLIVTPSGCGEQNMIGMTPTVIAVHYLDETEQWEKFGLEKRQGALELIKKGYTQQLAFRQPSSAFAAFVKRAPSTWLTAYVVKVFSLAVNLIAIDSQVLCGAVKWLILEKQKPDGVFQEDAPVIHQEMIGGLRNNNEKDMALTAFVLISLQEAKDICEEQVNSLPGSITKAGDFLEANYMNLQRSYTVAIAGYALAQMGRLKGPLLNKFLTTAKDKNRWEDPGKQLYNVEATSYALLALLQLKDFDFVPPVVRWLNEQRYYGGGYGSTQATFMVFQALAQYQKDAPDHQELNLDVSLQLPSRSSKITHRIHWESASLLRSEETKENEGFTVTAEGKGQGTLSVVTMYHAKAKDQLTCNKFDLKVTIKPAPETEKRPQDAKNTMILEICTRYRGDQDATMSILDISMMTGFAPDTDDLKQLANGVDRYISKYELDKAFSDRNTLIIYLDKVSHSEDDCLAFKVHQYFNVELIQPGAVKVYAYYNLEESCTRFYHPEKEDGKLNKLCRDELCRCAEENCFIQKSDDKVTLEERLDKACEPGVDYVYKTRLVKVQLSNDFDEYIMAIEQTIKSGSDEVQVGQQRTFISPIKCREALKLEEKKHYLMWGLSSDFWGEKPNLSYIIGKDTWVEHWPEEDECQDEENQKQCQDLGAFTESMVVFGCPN

Structure (SMILES)	IC50 [2, 3] [nM]	IC50 [2, 4] [nM]	IC50 [1] [nM]
COc1cc(C)c2[nH]ccc2c1CN1CC[C@H](NC2CCC2)C[C@H]1c1ccc(C(=O)O)cc1 [Example 20, 4-((2S,4S)-4-(cyclobutylamino)-1-((5-methoxy-7-methyl-1H-indol-4-yl)methyl)piperidin-2-yl)benzoic acid]	–	25 to 50	300 to 500
COc1cc(C)c2[nH]ccc2c1CN1CCC2(C[C@H]1c1ccc(C(=O)O)cc1)CC(F)(F)C2 [Example 45, (S)-4-(2,2-difluoro-7-((5-methoxy-7-methyl-1H-indol-4-yl)methyl)-7-azaspiro[3.5]nonan-6-yl)benzoic acid]	< 10	–	< 100
COc1cc(C)c2[nH]ccc2c1CN1CC[C@H](n2cc(Cl)cn2)C[C@H]1c1ccc(C(=O)O)cc1 [Example 8]	< 10	–	< 100
COc1cc(C)c2[nH]ccc2c1CN1CC[C@H](NCC2(C(F)(F)F)CC2)C[C@H]1c1ccc(C(=O)O)cc1 [Example 27, 4-((2S,4S)-1-((5-methoxy-7-methyl-1H-indol-4-yl)methyl)-4-(((1-(trifluoromethyl)cyclopropyl)methyl)amino)piperidin-2-yl)benzoic acid]	–	–	100 to 200
COc1cc(C)c2[nH]ccc2c1CN1CC[C@@H](OC(F)F)C[C@@H]1c1ccc(C(=O)O)cc1 [Example 29, 4-((2R,4R)-4-(difluoromethoxy)-1-((5-methoxy-7-methyl-1H-indol-4-yl)methyl)piperidin-2-yl)benzoic acid]	–	> 100	> 500
COc1cc(C)c2[nH]ccc2c1CN1CC[C@H](NCC(F)(F)F)C[C@H]1c1ccc(C(=O)O)cc1 (racemic) [Example 14, (+)-trans-4-(1-((5-methoxy-7-methyl-1H-indol-4-yl)methyl)-4-((2,2,2-trifluoroethyl)amino)piperidin-2-yl)benzoic acid]	–	10 to 25	100 to 200
COc1cc(C)c2[nH]ccc2c1CN1CC[C@@]2(CCCO2)C[C@H]1c1ccc(C(=O)O)cc1 (single isomer, unassigned) [Example 33, 4-((5S,7S)-8-((5-methoxy-7-methyl-1H-indol-4-yl)methyl)-1-oxa-8-azaspiro[4.5]decan-7-yl)benzoic acid or 4-((5R,7S)-8-((5-methoxy-7-methyl-1H-indol-4-yl)methyl)-1-oxa-8-azaspiro[4.5]decan-7-yl)benzoic acid]	> 100	–	> 500
COc1cc(C)c2[nH]ccc2c1CN1CC[C@H](NCC2(F)CC2)C[C@H]1c1ccc(C(=O)O)cc1 [Example 23, 4-((2S,4S)-4-(((1-fluorocyclopropyl)methyl)amino)-1-((5-methoxy-7-methyl-1H-indol-4-yl)methyl)piperidin-2-yl)benzoic acid]	50 to 100	–	300 to 500
COc1cc(C)c2[nH]ccc2c1CN1CC[C@]2(CCC(F)(F)C2)C[C@H]1c1ccc(C(=O)O)cc1 (single isomer, unassigned) [Example 35, 4-(5R,7S)-(2,2-difluoro-8-((5-methoxy-7-methyl-1H-indol-4-yl)methyl)-8-azaspiro[4.5]decan-7-yl)benzoic acid or 4-(5S,7S)-(2,2-difluoro-8-((5-methoxy-7-methyl-1H-indol-4-yl)methyl)-8-azaspiro[4.5]decan-7-yl)benzoic acid]	< 10	–	< 100
COc1cc(C)c2[nH]ccc2c1CN1CC[C@H](C2CC2)C[C@H]1c1ccc(C(=O)O)cc1 [Example 41, 4-((2S,4S)-4-cyclopropyl-1-((5-methoxy-7-methyl-1H-indol-4-yl)methyl)piperidin-2-yl)benzoic acid]	–	–	100 to 200
COc1cc(C)c2[nH]ccc2c1CN1CC[C@H](n2cnc(C(F)(F)F)n2)C[C@H]1c1ccc(C(=O)O)cc1 (racemic) [Example 5, (±)-trans-4-(1-((5-methoxy-7-methyl-1H-indol-4-yl)methyl)-4-(3-(trifluoromethyl)-1H-1,2,4-triazol-1-yl)piperidin-2-yl)benzoic acid]	–	–	> 500
COc1cc(C)c2[nH]ccc2c1CN1CC[C@H](n2cc3ccccc3n2)C[C@H]1c1ccc(C(=O)O)cc1 (racemic) [Example 6, (±)-trans-4-(4-(2H-indazol-2-yl)-1-((5-methoxy-7-methyl-1H-indol-4-yl)methyl)piperidin-2-yl)benzoic acid]	–	–	> 500

The next lines start with results.

IC50 [2, 3] [nM]	IC50 [2, 4] [nM]	Structure (SMILES)	IC50 [1] [nM]
< 10	–	COc1cc(C)c2[nH]ccc2c1CN1CC[C@H](OCC(F)F)C[C@H]1c1ccc(C(=O)O)cc1 [Example 83, 4-((2S,4S)-4-(2,2-difluoroethoxy)-1-((5-methoxy-7-methyl-1H-indol-4-yl)methyl)piperidin-2-yl)benzoic acid]	100 to 200
25 to 50	–	COc1cc(C)c2[nH]ccc2c1CN1CC[C@H](N2CC(OC(F)(F)F)C2)C[C@H]1c1ccc(C(=O)O)cc1 [Example 72, 4-((2S,4S)-1-((5-methoxy-7-methyl-1H-indol-4-yl)methyl)-4-(3-(trifluoromethoxy)azetidin-1-yl)piperidin-2-yl)benzoic acid]	200 to 300
< 10	–	COc1cc(C)c2[nH]ccc2c1CN1CC[C@]2(C[C@H]1c1ccc(C(=O)O)cc1)C[C@@H](F)C2 (single isomer, unassigned) [Example 63, 4-((2R,4s,6S)-2-fluoro-7-((5-methoxy-7-methyl-1H-indol-4-yl)methyl)-7-azaspiro[3.5]nonan-6-yl)benzoic acid or 4-((2S,4r,6S)-2-fluoro-7-((5-methoxy-7-methyl-1H-indol-4-yl)methyl)-7-azaspiro[3.5]nonan-6-yl)benzoic acid]	< 100
< 10	–	COc1cc(C)c2[nH]cc(Cl)c2c1CN1CCC2(C[C@H]1c1ccc(C(=O)O)cc1)CC(F)(F)C2 [Example 53, (S)-4-(7-((3-chloro-5-methoxy-7-methyl-1H-indol-4-yl)methyl)-2,2-difluoro-7-azaspiro[3.5]nonan-6-yl)benzoic acid]	< 100
10 to 25	–	COc1cc(C)c2[nH]ccc2c1CN1CC[C@]2(C[C@H]1c1ccc(C(=O)O)cc1)C[C@@](C)(O)C2 (single isomer, unassigned) [Example 60, 4-((2R,4s,6S)-2-hydroxy-7-((5-methoxy-7-methyl-1H-indol-4-yl)methyl)-2-methyl-7-azaspiro[3.5]nonan-6-yl)benzoic acid or 4-((2S,4r,6S)-2-hydroxy-7-((5-methoxy-7-methyl-1H-indol-4-yl)methyl)-2-methyl-7-azaspiro[3.5]nonan-6-yl)benzoic acid]	100 to 200
< 10	–	COc1cc(C)c2[nH]ccc2c1CN1CC[C@]2(C[C@H]1c1ccc(C(=O)O)cc1)C[C@@H](C(F)(F)F)C2 (single isomer, unassigned) [Example 49, 4-((2R,4s,6S)-7-((5-methoxy-7-methyl-1H-indol-4-yl)methyl)-2-(trifluoromethyl)-7-azaspiro[3.5]nonan-6-yl)benzoic acid or 4-((2S,4r,6S)-7-((5-methoxy-7-methyl-1H-indol-4-yl)methyl)-2-(trifluoromethyl)-7-azaspiro[3.5]nonan-6-yl)benzoic acid]	< 100
25 to 50	–	COc1cc(C)c2[nH]ccc2c1CN1CCN(CCF)C[C@H]1c1ccc(C(=O)O)cc1 [Example 70, (R)-4-(4-(2-fluoroethyl)-1-((5-methoxy-7-methyl-1H-indol-4-yl)methyl)piperazin-2-yl)benzoic acid]	200 to 300
< 10	–	COc1cc(C)c2[nH]ccc2c1CN1CC[C@]2(C[C@H]1c1ccc(C(=O)O)cc1)C[C@@H](C(F)F)C2 (single isomer, unassigned) [Example 46, 4-((2R,4s,6S)-2-(difluoromethyl)-7-((5-methoxy-7-methyl-1H-indol-4-yl)methyl)-7-azaspiro[3.5]nonan-6-yl)benzoic acid or 4-((2S,4r,6S)-2-(difluoromethyl)-7-((5-methoxy-7-methyl-1H-indol-4-yl)methyl)-7-azaspiro[3.5]nonan-6-yl)benzoic acid]	100 to 200
